# Active and inactive are the calls of the source. The rule behind the calls is not given here.
# Tests used:
# [1] = Tmax in Sprague-Dawley rat at 5 mg/kg, po measured upto 24 hrs by LC-MS/MS analysis; type: ADME, organism-based; conditions: in vivo
# Mus musculus = assay: Anti-VaD activity against UCCAO-induced spatial memory deficient C57BL/6J mouse model assessed as improvement in spatial learning and memory by measuring increase in latency time at 10 mg/kg, po administered for 21 days by passive avoidance test; type: functional, organism-based
# [2] = target: cAMP and cAMP-inhibited cGMP 3',5'-cyclic phosphodiesterase 10A (Homo sapiens, UniProt Q9Y233); assay: Inhibition of human PDE10A2 (449 to 770 residues) expressed in Escherichia coli BL21 codon-plus cells using [3H]cAMP as substrate incubated for 15 mins followed by substrate addition by liquid scintillation counting method
# Sequence of cAMP and cAMP-inhibited cGMP 3',5'-cyclic phosphodiesterase 10A (Q9Y233 whole entry, the tested form may be a part): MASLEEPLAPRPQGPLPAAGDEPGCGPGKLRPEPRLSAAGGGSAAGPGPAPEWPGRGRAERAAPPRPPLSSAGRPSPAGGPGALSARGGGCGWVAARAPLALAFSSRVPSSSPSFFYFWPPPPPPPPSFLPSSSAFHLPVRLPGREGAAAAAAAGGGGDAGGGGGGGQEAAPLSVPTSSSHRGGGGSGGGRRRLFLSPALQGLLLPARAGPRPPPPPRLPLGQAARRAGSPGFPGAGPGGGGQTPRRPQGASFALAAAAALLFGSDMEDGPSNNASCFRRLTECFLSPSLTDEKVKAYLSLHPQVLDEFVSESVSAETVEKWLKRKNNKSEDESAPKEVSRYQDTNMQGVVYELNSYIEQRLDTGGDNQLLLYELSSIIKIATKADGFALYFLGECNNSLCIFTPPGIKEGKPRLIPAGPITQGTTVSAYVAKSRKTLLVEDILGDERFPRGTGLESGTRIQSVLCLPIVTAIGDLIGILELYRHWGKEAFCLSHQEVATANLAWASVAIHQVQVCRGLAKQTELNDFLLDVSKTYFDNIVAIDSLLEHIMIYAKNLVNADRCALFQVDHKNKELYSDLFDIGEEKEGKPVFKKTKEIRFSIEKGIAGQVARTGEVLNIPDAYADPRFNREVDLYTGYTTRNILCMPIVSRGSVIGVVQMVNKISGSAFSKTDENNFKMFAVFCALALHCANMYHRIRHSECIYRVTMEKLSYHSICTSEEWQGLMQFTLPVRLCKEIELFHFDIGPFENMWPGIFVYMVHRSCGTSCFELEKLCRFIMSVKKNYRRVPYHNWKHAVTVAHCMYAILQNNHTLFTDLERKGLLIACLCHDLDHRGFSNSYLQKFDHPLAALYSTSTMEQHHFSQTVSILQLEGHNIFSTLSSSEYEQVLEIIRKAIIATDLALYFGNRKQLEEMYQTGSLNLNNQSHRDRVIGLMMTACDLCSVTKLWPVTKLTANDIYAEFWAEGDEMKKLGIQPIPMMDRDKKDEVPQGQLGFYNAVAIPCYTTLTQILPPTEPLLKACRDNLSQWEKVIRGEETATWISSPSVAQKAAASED
# [3] = AUC(0 to t) in Sprague-Dawley rat at 5 mg/kg, po measured upto 24 hrs by LC-MS/MS analysis; type: ADME, organism-based; parameters: dose 5 mg/kg, time < 24 hr, route oral; conditions: in vivo
# [4] = Cmax in Sprague-Dawley rat at 5 mg/kg, po measured upto 24 hrs by LC-MS/MS analysis; type: ADME, organism-based; parameters: dose 5 mg/kg, route oral; conditions: in vivo
# [5] = Inhibition of human PDE4D7 (1 to 748 residues) expressed in Escherichia coli BL21 codon-plus cells using [3H]cAMP as substrate incubated for 15 mins by liquid scintillation counting method
# [6] = Tmax in Sprague-Dawley rat at 2.5 mg/kg, iv measured upto 24 hrs by LC-MS/MS analysis; type: ADME, organism-based; conditions: in vivo
# [7] = target: T1, 3',5'-cyclic-AMP phosphodiesterase 4B (Homo sapiens, UniProt Q07343); assay: Partial inhibition of human PDE4B1 (1 to 736 residues) expressed in Escherichia coli BL21 codon-plus cells using [3H]cAMP as substrate incubated with compound at high concentrations for 15 mins by liquid scintillation counting method relative to control
# T1 sequence (Q07343 whole entry, the tested form may be a part): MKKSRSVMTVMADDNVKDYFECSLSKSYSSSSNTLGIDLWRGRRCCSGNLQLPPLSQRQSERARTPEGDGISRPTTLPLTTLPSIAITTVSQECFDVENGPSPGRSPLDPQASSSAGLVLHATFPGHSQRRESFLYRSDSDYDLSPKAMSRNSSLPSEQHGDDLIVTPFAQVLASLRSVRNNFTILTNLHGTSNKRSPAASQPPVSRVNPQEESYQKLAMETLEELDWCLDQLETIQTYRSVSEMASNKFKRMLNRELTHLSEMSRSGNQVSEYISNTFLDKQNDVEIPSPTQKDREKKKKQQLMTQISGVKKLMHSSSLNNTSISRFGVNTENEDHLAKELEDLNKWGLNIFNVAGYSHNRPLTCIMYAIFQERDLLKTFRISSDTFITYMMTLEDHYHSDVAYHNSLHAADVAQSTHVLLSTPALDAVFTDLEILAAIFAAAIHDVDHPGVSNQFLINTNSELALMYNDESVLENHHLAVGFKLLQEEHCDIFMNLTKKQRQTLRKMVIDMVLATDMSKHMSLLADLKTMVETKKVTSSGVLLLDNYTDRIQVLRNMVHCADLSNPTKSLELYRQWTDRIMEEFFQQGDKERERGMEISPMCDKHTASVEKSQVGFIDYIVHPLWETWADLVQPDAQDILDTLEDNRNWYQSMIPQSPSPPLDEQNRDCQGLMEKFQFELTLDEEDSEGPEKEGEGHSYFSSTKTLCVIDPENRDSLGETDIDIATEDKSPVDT
# [8] = target: cGMP-specific 3',5'-cyclic phosphodiesterase (Homo sapiens, UniProt O76074); assay: Inhibition of human PDE5A1 (535 to 860 residues) expressed in Escherichia coli BL21 codon-plus cells using [3H]cGMP as substrate incubated for 15 mins by liquid scintillation counting method
# [9] = target: High affinity 3',5'-cyclic-AMP phosphodiesterase 7A (Homo sapiens, UniProt Q13946); assay: Inhibition of human PDE7A1 (130 to 482 residues) expressed in Escherichia coli BL21 codon-plus cells using [3H]cAMP as substrate incubated for 15 mins by liquid scintillation counting method
# Sequence of High affinity 3',5'-cyclic-AMP phosphodiesterase 7A (Q13946 whole entry, the tested form may be a part): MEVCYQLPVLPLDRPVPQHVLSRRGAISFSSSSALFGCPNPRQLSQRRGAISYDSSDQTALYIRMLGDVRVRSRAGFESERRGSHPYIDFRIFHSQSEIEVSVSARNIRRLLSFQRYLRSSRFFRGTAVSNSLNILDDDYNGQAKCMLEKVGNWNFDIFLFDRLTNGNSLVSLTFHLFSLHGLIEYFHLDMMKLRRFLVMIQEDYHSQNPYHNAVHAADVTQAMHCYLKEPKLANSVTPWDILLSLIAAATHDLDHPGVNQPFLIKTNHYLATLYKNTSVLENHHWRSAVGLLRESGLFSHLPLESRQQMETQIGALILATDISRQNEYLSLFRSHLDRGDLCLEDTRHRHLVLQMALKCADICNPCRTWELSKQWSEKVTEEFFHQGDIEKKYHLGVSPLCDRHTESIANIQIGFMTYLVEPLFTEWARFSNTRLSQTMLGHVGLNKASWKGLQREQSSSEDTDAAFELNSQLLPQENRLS
# [10] = target: High affinity cGMP-specific 3',5'-cyclic phosphodiesterase 9A (Homo sapiens, UniProt O76083); assay: Inhibition of human PDE9A2 (181 to 506 residues) expressed in Escherichia coli BL21 codon-plus cells using [3H]cGMP as substrate incubated for 15 mins by liquid scintillation counting method
# Sequence of High affinity cGMP-specific 3',5'-cyclic phosphodiesterase 9A (O76083 whole entry, the tested form may be a part): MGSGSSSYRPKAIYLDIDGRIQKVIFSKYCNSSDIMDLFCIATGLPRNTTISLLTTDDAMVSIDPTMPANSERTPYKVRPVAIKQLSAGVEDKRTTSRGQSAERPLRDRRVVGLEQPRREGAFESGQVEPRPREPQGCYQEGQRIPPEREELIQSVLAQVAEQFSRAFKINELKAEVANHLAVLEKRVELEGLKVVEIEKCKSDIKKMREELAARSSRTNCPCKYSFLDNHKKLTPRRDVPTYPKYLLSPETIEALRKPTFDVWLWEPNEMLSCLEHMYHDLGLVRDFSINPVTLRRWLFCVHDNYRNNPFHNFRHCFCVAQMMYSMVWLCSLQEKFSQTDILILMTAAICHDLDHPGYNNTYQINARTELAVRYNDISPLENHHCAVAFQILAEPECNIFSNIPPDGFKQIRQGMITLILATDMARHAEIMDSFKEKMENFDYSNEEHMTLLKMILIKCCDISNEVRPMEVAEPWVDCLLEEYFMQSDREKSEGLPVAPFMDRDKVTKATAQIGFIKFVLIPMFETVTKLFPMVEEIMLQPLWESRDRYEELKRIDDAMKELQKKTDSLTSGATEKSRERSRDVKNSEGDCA
# [11] = target: T1, 3',5'-cyclic-AMP phosphodiesterase 4B; assay: Inhibition of human PDE4B2 (152 to 487 residues) expressed in Escherichia coli BL21 codon-plus cells using [3H]cAMP as substrate incubated for 15 mins by liquid scintillation counting method
# [12] = Cmax in Sprague-Dawley rat at 2.5 mg/kg, iv measured upto 24 hrs by LC-MS/MS analysis; type: ADME, organism-based; parameters: dose 2.5 mg/kg, route intravenous; conditions: in vivo
# Cytochrome P450 2D6 = Cytochrome P450 2D6 (Homo sapiens, UniProt P10635); assay: Inhibition of human CYP2D6; type: ADME
# Sequence of Cytochrome P450 2D6 (P10635 whole entry, the tested form may be a part): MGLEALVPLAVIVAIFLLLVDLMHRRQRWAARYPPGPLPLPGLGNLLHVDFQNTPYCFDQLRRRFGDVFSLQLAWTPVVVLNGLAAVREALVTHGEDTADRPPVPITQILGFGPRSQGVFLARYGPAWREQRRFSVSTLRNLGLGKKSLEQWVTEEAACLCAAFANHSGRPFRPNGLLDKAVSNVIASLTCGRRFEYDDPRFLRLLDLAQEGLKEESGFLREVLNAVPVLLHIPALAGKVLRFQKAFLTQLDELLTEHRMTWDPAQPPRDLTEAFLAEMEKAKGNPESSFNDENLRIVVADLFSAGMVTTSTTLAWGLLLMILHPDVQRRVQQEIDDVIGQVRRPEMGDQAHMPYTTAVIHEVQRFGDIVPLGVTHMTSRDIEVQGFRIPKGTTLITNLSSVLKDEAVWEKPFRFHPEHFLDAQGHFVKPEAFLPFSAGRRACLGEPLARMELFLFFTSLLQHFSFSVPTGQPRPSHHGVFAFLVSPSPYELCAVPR
# [13] = target: T1, 3',5'-cyclic-AMP phosphodiesterase 4B; assay: Inhibition of human PDE4B1 (1 to 736 residues) expressed in Escherichia coli BL21 codon-plus cells using [3H]cAMP as substrate incubated for 15 mins by liquid scintillation counting method
# [14] = target: cGMP-dependent 3',5'-cyclic phosphodiesterase (Homo sapiens, UniProt O00408); assay: Inhibition of human PDE2A (580 to 919 residues) expressed in Escherichia coli BL21 codon-plus cells using [3H]cGMP as substrate incubated for 15 mins by liquid scintillation counting method
# Sequence of cGMP-dependent 3',5'-cyclic phosphodiesterase (O00408 whole entry, the tested form may be a part): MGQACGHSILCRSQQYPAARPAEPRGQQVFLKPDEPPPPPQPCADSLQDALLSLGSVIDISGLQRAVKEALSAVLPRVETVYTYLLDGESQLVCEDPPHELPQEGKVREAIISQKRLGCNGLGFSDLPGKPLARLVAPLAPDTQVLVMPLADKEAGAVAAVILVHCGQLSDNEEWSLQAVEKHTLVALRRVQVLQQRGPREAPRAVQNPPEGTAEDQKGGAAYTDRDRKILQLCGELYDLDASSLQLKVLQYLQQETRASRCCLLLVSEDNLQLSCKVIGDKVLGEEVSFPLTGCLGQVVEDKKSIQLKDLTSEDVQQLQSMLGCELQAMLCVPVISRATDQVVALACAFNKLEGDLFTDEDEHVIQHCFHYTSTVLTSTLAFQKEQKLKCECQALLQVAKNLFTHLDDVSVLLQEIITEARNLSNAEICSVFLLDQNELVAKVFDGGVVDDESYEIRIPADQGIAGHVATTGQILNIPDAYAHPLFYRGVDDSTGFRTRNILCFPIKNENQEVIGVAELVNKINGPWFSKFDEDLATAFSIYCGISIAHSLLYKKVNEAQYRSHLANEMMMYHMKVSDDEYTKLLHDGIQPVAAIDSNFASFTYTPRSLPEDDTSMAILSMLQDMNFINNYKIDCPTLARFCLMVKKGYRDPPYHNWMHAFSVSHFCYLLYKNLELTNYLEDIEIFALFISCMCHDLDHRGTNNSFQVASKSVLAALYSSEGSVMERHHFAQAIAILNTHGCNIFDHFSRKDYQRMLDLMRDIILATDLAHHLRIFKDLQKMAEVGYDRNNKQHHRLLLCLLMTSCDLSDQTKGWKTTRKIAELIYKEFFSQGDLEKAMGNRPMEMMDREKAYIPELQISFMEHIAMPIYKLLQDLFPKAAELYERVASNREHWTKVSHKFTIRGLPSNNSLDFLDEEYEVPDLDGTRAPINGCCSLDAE
# [15] = Toxicity in Beagle dog assessed as animals exhibiting emesis at 10 mg/kg, po observed for 180 mins; type: organism-based, Canis lupus familiaris; conditions: in vivo, 3 h
smiles,measurement,setting,value
COc1c(OCCCCCCC(=O)O)cc2oc3cc4c(c(O)c3c(=O)c2c1CC=C(C)C)C=CC(C)(C)O4,Tmax,[1],4.67 h
same,Activity,Mus musculus,Active
same,IC50,[2],> 10000 nM
same,AUC(0-t) at 24 h,[3],4740 ng·h/mL
same,Cmax,[4],661 ng/mL
same,IC50,[5],9 nM
same,Tmax,[6],4.98 min
same,inhibition,[7],60%
same,IC50,[8],3390 nM
same,IC50,[9],620 nM
same,IC50,[10],> 10000 nM
same,IC50,[11],10 nM
same,Cmax,[12],14100 ng/mL
same,IC50,Cytochrome P450 2D6,> 10000 nM
same,IC50,[13],8 nM
same,IC50,[14],> 10000 nM
same,Activity,[15],0%

# From ChEMBL document CHEMBL4402573, “Discovery and Optimization of α-Mangostin Derivatives as Novel PDE4 Inhibitors for the Treatment of Vascular Dementia” (J Med Chem, 2020)
